Our source for the EC50 values is US10294217B2, “Fluoroindole derivatives as muscarinic M1 receptor positive allosteric modulators” (Suven Life Sciences Limited, priority 2015, dated 2019).

Structures can show the parent of a compound that is named as a salt. Where two headings read alike, the source gives them in different places.

The assay addresses human Muscarinic M1 receptor (Homo sapiens (Human), UniProt P11229). As to the kind of experiment: Allosteric potency EC50 for muscarinic M1 receptor (CHO cells, pCRE-Luc reporter). The assay is classed as cell-based. Conditions: luciferase activity, 4 hours. The procedure:
Determination of Allosteric Potency EC50 Values for Muscarinic M1 Receptor:
A stable CHO cell line expressing recombinant human Muscarinic M1 receptor and pCRE-Luc reporter system was used for cell-based assay. The assay offers a non-radioactive based approach to determine binding of a compound to GPCRs. In this specific assay, the level of intracellular cyclic AMP which is modulated by activation or inhibition of the receptor is measured. The recombinant cells harbor luciferase reporter gene under the control of cAMP response element.
The above cells were grown in 96 well clear bottom white plates in Hams F12 medium containing 10% fetal bovine serum (FBS). Prior to the addition of compounds or standard agonist, cells were serum starved overnight. Increasing concentrations of test compounds were added along with EC20 of acetylcholine in OptiMEM medium to the cells. The incubation was continued at 37° C. in CO2 incubator for 4 hours. Medium was removed and cells were washed with phosphate buffered saline. The cells were lysed and luciferase activity was measured in a Luminometer. Luminescence units were plotted against the compound concentrations using Graphpad software. EC50 values of the compounds were defined as the concentration required in stimulating the luciferase activity by 50% in presence of EC20 of acetylcholine and the results are provided in table 1.

The mark [1] stands for this setting: hM1 PAM EC50, in presence of EC20 of acetylcholine.
The mark [2] stands for this setting: in presence of EC20 of acetylcholine, read-out: hM1 PAM EC50.

What is called EC50 is the midpoint of the concentration-response curve. In the case of `O=C(N[C@H]1CCNC[C@H]1F)c1cn(Cc2ccnc(Cl)c2)c2c(F)ccc(F)c12` (racemic) [Example 28, cis-N-(3-Fluoropiperidin-4-yl)-1-(2-chloropyridin-4-ylmethyl)-4,7-difluoro-1H-indole-3-carboxamide hydrochloride (Racemate)], under setting [1], the EC50 amounted to 1570 nM.

In the case of `O=C(N[C@@H]1CCNC[C@H]1F)c1cn(Cc2ccnc(F)c2)c2c(F)ccc(F)c12` (single isomer, unassigned; isomer-i) [Example 24, trans-N-(3-Fluoropiperidin-4-yl)-1-(2-fluoropyridin-4-ylmethyl)-4,7-difluoro-1H-indole-3-carboxamide hydrochloride (Isomer-I)], the EC50 under setting [1] amounted to 1390 nM. `O=C(N[C@H]1CCNC[C@H]1F)c1cn(Cc2ccncc2F)c2c(F)ccc(F)c12` (single isomer, unassigned; isomer-i) [Example 26, cis-N-(3-Fluoropiperidin-4-yl)-1-(5-fluoropyridin-4-ylmethyl)-4,7-difluoro-1H-indole-3-carboxamide hydrochloride (Isomer-I)]: the EC50 under setting [1] was determined as 1100 nM. As to `O=C(N[C@H]1CCNC[C@H]1F)c1cn(Cc2ccnc(Cl)c2)c2cccc(F)c12` (single isomer, unassigned; isomer-i) [Example 27, cis-N-(3-Fluoropiperidin-4-yl)-1-(2-chloropyridin-4-ylmethyl)-4-fluoro-1H-indole-3-carboxamide hydrochloride (Isomer-I)], the EC50 under setting [1] is 1690 nM. The same measure, in the same setting: to `O=C(N[C@H]1CCNC[C@H]1F)c1cn(Cc2ccnc(Cl)c2)c2c(F)ccc(F)c12` (single isomer, unassigned; isomer-i) [Example 29, cis-N-(3-Fluoropiperidin-4-yl)-1-(2-chloropyridin-4-ylmethyl)-4,7-difluoro-1H-indole-3-carboxamide hydrochloride (Isomer-I)] belongs 2920 nM; to `O=C(N[C@H]1CCNC[C@H]1F)c1cn(Cc2ccc(F)cc2)c2c(F)ccc(F)c12` (single isomer, unassigned; isomer-i) [Example 31, cis-N-(3-Fluoropiperidin-4-yl)-1-(4-fluorobenzyl)-4,7-difluoro-1H-indole-3-carboxamide hydrochloride (Isomer-I)], 1610 nM; to `O=C(N[C@H]1CCNC[C@H]1F)c1cn(Cc2ccccc2F)c2cccc(F)c12` (single isomer, unassigned; isomer-i) [Example 33, cis-N-(3-Fluoropiperidin-4-yl)-1-(2-fluorobenzyl)-4-fluoro-1H-indole-3-carboxamide hydrochloride (Isomer-I)], 1370 nM. Turning to `O=C(N[C@H]1CCNC[C@H]1F)c1cn(Cc2ccc(Cl)cc2)c2cccc(F)c12` (single isomer, unassigned; isomer-i) [Example 34, cis-N-(3-Fluoropiperidin-4-yl)-1-(4-chlorobenzyl)-4-fluoro-1H-indole-3-carboxamide hydrochloride (Isomer-I)], the EC50 under setting [1] is 1390 nM.

On to `COc1ccc(Cn2cc(C(=O)N[C@H]3CCNC[C@H]3F)c3c(F)ccc(F)c32)cc1` (single isomer, unassigned; isomer-i) [Example 39, cis-N-(3-Fluoropiperidin-4-yl)-1-(4-methoxybenzyl)-4,7-difluoro-1H-indole-3-carboxamide hydrochloride (Isomer-I)], for which the half-maximal effective concentration (EC50) under setting [1] was determined as 1480 nM. As to `O=C(N[C@H]1CCNC[C@H]1F)c1cn(Cc2ccnc(F)c2)c2cccc(F)c12` (single isomer, unassigned; isomer-i) [Example 44, cis-N-(3-Fluoropiperidin-4-yl)-1-(2-fluoropyridin-4-ylmethyl)-4-fluoro-1H-indole-3-carboxamide hydrochloride (Isomer-I)], under setting [1], the EC50 came to 1310 nM. With `O=C(N[C@H]1CCNC[C@H]1F)c1cn(Cc2ccc3ncsc3c2)c2cccc(F)c12` (single isomer, unassigned; isomer-i) [Example 45, cis-N-(3-Fluoropiperidin-4-yl)-1-(benzothiazol-6-ylmethyl)-4-fluoro-1H-indole-3-carboxamide hydrochloride (Isomer-I)], under setting [1], the concentration for a half-maximal effect (EC50) turned out to be 1160 nM. For `O=C(NC1CCNCC1F)c1cn(Cc2ccnc(F)c2)c2c(F)ccc(F)c12` (single isomer, unassigned; isomer-ii) [Example 23, cis-N-(3-Fluoropiperidin-4-yl-1-(2-fluoropyridin-4-ylmethyl)-4,7-difluoro-1H-indole-3-carboxamide hydrochloride (Isomer-II)], under setting [1], the half-maximal effective concentration (EC50) amounted to 1070 nM. In the case of `O=C(N[C@@H]1CCNC[C@H]1F)c1cn(Cc2ccnc(F)c2)c2c(F)ccc(F)c12` (single isomer, unassigned; isomer-ii) [Example 25, trans-N-(3-Fluoropiperidin-4-yl)-1-(2-fluoropyridin-4-ylmethyl)-4,7-difluoro-1H-indole-3-carboxamide hydrochloride (Isomer-II)], under setting [1], the concentration for a half-maximal effect (EC50) turned out to be 1440 nM.

For the compound `O=C(N[C@H]1CCNC[C@H]1F)c1cn(Cc2ccc(F)cc2)c2c(F)ccc(F)c12` (single isomer, unassigned; isomer-ii) [Example 32, cis-N-(3-Fluoropiperidin-4-yl)-1-(4-fluorobenzyl)-4,7-difluoro-1H-indole-3-carboxamide hydrochloride (Isomer-II)], the concentration giving a half-maximal response (EC50) under setting [1] is 1590 nM. Still for that read-out and setting: to `COc1cccc(Cn2cc(C(=O)N[C@H]3CCNC[C@H]3F)c3c(F)cccc32)c1` (single isomer, unassigned; isomer-ii) [Example 36, cis-N-(3-Fluoropiperidin-4-yl)-4-fluoro-1-(3-methoxybenzyl)-1H-indole-3-carboxamide hydrochloride (Isomer-II)] belongs 1350 nM; to `COc1ccc(Cn2cc(C(=O)N[C@H]3CCNC[C@H]3F)c3c(F)cccc32)cc1` (single isomer, unassigned; isomer-ii) [Example 37, cis-N-(3-Fluoropiperidin-4-yl)-1-(4-methoxybenzyl)-4-fluoro-1H-indole-3-carboxamide hydrochloride (Isomer-II)], 1990 nM. For `Cn1cc(Cn2cc(C(=O)N[C@@H]3CCCC[C@H]3O)c3c(F)cccc32)cn1` [Example 3, N-[(1R,2R)-2-Hydroxycyclohexyl]-1-(1-methyl-1H-pyrazol-4-ylmethyl)-4-fluoro-1H-indole-3-carboxamide], the EC50 under setting [2] worked out at 1640 nM.

Turning to `Cn1nc(Cn2cc(C(=O)N[C@H]3CCCC[C@@H]3O)c3c(F)cccc32)c2ccccc21` [Example 4], the EC50 under setting [2] stood at 1490 nM. `O=C(N[C@H]1CCCC[C@@H]1O)c1cn(Cc2ccncc2F)c2cccc(F)c12` [Example 9, N-[(1S,2S)-2-Hydroxycyclohexyl]-1-(3-fluoropyridin-4-ylmethyl)-4-fluoro-1H-indole-3-carboxamide]: the EC50 under setting [2] is 1420 nM. `O=C(N[C@H]1CCCC[C@@H]1O)c1cn(Cc2ccnc(F)c2F)c2cccc(F)c12` [Example 13, N-[(1S,2S)-2-Hydroxycyclohexyl]-1-(2,3-difluoropyridin-4-ylmethyl)-4-fluoro-1H-indole-3-carboxamide]: the EC50 under setting [2] was 1380 nM. Regarding `O=C(N[C@H]1CCCC[C@@H]1O)c1cn(Cc2ccc3ncsc3c2)c2cccc(F)c12` [Example 18, N-[(1S,2S)-2-Hydroxycyclohexyl]-1-(benzothiazol-6-ylmethyl)-4-fluoro-1H-indole-3-carboxamide], the concentration giving a half-maximal response (EC50) under setting [2] worked out at 160 nM.
